Measured values reported in patent US8586768B2, “Design, synthesis and functional characterization of rottlerin analogs” (priority 2009, dated 2013).
Like-named read-outs stand apart in the source and are kept apart here.

Columns and labels:
[1] = tested on: C57 black mice; assay: Acute MPTP mouse model of PD, locomotor activity (VersaMax Analyzer); assay type: in vivo; conditions: MPTP 4 x 18 mg/kg i.p.; 10 mg/kg oral gavage, 7 days
Protocol: (§1) Lead PK analogs protect against behavioral deficits and neurochemical loss in a preclinical MPTP-induced mouse model of PD. After characterizing the neuroprotective effect of PK analogs in cell culture models of PD, as a proof of principle, preliminary evaluation of two lead PK analogs in an acute MPTP animal model of PD were conducted. C57 black mice received 4 doses of MPTP at 18 mg/kg i.p at 2 hr interval. Oral administration of lead PK analogs (10 mg/kg body wt, oral gavage) was started 1 day before MPTP insult and continued for 7 days. 1% DMSO was used as the vehicle control. Locomotor activity was measured using the VersaMax Analyzer 1-2 days before sacrificing the mice. Mice were sacrificed after 7 days of MPTP injection. (n=5). (**p<0.01: PK analogs versus MPTP).

[2] = tested on: C57 black mice; assay: Acute MPTP mouse model of PD, striatal dopamine and DOPAC; assay type: in vivo; conditions: MPTP 4 x 18 mg/kg i.p.; 10 mg/kg oral gavage, 7 days
Protocol: as §1

[3] = biological target: T1, CamK2a (Homo sapiens, UniProt Q9UQM7); assay: In-vitro kinase profiling, radioisotope screening assay (Signal Chem); assay type: biochemical; conditions: 5 μM compound, 50 μM ATP, vs vehicle control; negative = inhibition
T1 construct: purchased Signal Chem (Richmond, BC, Canada)
T1 sequence (Q9UQM7 whole entry): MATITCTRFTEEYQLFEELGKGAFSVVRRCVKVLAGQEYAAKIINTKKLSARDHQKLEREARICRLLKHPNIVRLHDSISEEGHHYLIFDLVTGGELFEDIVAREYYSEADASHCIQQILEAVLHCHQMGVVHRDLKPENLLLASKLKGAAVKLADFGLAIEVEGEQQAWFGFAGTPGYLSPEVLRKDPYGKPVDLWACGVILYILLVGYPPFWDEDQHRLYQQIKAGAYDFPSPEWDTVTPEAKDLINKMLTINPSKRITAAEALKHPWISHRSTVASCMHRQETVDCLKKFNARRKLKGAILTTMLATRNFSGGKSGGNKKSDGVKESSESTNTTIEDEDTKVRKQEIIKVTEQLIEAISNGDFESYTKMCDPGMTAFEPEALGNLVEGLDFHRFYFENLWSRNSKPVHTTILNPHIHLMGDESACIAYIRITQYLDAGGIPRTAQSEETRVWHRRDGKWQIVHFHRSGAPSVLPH
Protocol: (§2) Kinase profiling of PK analogs. The inhibitory effect of lead PK analogs were tested against a panel of 15 protein kinase targets (TABLE 1) to develop better lead candidates without “off” target effects. The selectivity assay was performed at Signal Chem™ (Richmond, BC, Canada) by profiling against protein kinase targets using the “Gold Standard” radioisotope screening assay format. This assay format gave the highest signal noise ratio and allowed the direct measurement of catalytic activity of a protein kinase.
(§3) All assays were performed in triplicate in a 96-well assay format and the % error between triplicates is <10%. Protein kinase assays was performed in the presence of 50 μM ATP at 30° C. for 15 min. The activity of the enzymes in the presence of 5 μM PK analogs was compared to that in the vehicle control and expressed as a percent change in activity relative to that observed in the vehicle control. In TABLE 1, the results are expressed as percent activity change compared to control. The intra-assay variability was determined to be less than 10%. Inhibition of target activity by the compound is shown by a negative value, while activation of target activity is shown by positive value, with values >10% considered to be highly significant.

[4] = biological target: T2, PKCμ (Homo sapiens, UniProt Q15139); assay: as above; assay type: biochemical; conditions: 5 μM compound, 50 μM ATP, vs vehicle control; negative = inhibition
T2 construct: purchased Signal Chem (Richmond, BC, Canada)
T2 sequence (Q15139 1-912): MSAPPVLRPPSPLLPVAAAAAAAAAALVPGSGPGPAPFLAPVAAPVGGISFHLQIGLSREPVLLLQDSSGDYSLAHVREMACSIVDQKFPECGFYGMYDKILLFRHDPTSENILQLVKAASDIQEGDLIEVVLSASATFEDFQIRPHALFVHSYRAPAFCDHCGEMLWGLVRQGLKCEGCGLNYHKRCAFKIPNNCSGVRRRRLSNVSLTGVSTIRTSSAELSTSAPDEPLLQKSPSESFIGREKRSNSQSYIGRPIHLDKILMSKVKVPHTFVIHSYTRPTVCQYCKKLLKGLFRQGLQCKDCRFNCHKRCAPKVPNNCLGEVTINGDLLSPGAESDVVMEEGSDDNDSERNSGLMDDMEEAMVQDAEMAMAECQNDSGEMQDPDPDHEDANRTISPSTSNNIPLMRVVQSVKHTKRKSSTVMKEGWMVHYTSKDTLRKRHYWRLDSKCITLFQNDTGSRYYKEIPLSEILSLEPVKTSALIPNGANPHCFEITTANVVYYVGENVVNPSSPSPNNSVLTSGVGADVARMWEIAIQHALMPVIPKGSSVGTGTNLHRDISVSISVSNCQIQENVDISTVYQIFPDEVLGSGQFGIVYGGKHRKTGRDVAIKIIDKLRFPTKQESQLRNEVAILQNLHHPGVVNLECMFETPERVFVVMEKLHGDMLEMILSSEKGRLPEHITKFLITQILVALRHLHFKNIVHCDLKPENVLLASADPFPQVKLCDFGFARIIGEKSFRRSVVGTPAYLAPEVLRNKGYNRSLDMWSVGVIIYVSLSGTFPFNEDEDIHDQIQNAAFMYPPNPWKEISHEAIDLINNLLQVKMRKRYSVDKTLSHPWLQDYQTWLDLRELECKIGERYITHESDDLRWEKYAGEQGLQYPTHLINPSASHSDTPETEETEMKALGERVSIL
Protocol: as §2, §3

[5] = biological target: T3, PKAα (Homo sapiens, UniProt P17612); assay: as above; assay type: biochemical; conditions: 5 μM compound, 50 μM ATP, vs vehicle control; negative = inhibition
T3 construct: purchased Signal Chem (Richmond, BC, Canada)
Protocol: as §2, §3

[6] = biological target: PKCδ (Homo sapiens, UniProt Q05655); assay: In vitro 32P phosphorylation kinase assay with histone substrate; assay type: biochemical; conditions: for % activity change 3 μM: 3 μM compound, negative = inhibition
Sequence of PKCδ (Q05655 whole entry): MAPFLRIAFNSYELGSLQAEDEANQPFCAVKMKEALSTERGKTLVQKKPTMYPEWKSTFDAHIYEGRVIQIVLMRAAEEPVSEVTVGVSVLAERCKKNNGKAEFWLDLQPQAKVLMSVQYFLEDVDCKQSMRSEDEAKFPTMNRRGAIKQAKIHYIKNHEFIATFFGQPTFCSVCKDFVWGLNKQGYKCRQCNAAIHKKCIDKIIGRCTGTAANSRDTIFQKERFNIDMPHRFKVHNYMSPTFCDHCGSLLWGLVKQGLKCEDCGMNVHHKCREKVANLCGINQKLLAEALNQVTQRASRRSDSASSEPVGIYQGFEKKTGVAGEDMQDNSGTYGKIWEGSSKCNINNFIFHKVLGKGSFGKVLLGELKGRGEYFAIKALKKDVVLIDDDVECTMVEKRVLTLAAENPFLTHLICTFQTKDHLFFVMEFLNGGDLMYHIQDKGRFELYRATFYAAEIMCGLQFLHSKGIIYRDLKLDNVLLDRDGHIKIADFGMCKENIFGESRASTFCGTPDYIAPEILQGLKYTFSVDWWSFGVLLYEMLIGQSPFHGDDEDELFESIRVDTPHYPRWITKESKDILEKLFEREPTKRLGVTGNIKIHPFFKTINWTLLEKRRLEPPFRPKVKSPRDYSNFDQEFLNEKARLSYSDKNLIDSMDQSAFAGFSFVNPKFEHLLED
Protocol: Since PK analogs are directed against PKCδ, it was first determined whether the analogs would inhibit PKCδ enzyme activity in kinase assays. The ability of lead PK analogs to inhibit purified human recombinant PKCδ enzyme activity by 32P phosphorylation kinase assay with histone as the substrate was measured. The in vitro kinase assays were performed with human recombinant PKCδ in the presence or absence of 0.3-10 μM lead PK analogs in the presence histone substrate, [^32P]-ATP and phospholipids. The extent of histone phosphorylation was determined after separation in SDS-PAGE and by phosphoimaging. IC50 was obtained using sigmoidal dose-response curve and non-linear regressional analysis using Graphpad Prism software.
In vitro kinase assays were performed with human recombinant PKCδ in the presence or absence of 0.3-10 μM lead PK analogs in the presence histone substrate, [^32P]-ATP and phospholipids. The extent of histone phosphorylation was determined after separation in SDS-PAGE and by phosphoimaging.

[7] = 0.3-10 μM, histone substrate, [32P]-ATP, phospholipids, read-out: IC50

Row | SMILES | horizontal locomotor deficits [1] | vertical locomotor deficits [1] | striatal DOPAC depletion [2] | striatal dopamine depletion [2] | % activity change [3] | % activity change [4] | % activity change [5] | % activity change 3 μM [6] | IC50 [6, 7] | IC50 [6]
1 | Oc1cc(O)c(Cc2c(O)cc(O)cc2O)c(O)c1 [PK103] | significantly improved | significantly improved | attenuated | attenuated | 6% | 6% | 3% | −65% | 5.98 µM | –
2 | CC(=O)c1c(O)c(C)c(O)c(Cc2c(O)c3c(c4c2OC(c2ccccc2)CC4=O)OC(C)(C)C=C3)c1O (centres unmarked) [PK202] | significantly improved | significantly improved | attenuated | attenuated | 6% | 6% | 10% | −67% | 0.97 µM | –
3 | CC1(C)C=Cc2c(O)cc(O)c(C(=O)/C=C/c3ccccc3)c2O1 [PK302] | significantly improved | significantly improved | attenuated | attenuated | 5% | 2% | 1% | −73% | 1.99 µM | –
4 | CC(=O)c1c(O)c(C)c(O)c(Cc2c(O)c3c(c(C(=O)/C=C/c4ccccc4)c2O)OC(C)(C)C=C3)c1O [Rottlerin, (E)-1-[6-[(3-acetyl-2,4,6-trihydroxy-5-methylphenyl)methyl]-5,7-dihydroxy-2,2-dimethylchromen-8-yl]-3-phenylprop-2-en-1-one] | – | – | – | – | 7% | −5% | 1% | −40% | – | 13.6 µM
